Reference: the NIST ThermoML archive (doi:10.1016/j.jct.2007.11.001)
± gives the expanded uncertainty stated by the source.

What was measured:
[1] = Molar enthalpy of transition or fusion; conditions: Crystal 2; Adiabatic calorimetry
[2] = Crystal 2; Adiabatic calorimetry

Molar enthalpy of transition or fusion [1]: 0.0648 ± 0.00598 kcal/mol
Triple point temperature [2]: 235.69 ± 0.2 K
SMILES: O=P([O-])([O-])[O-].[Cs+].[Mg+2] [caesium-magnesium monophosphate]
